In US20240182460A1, “ALLOSTERIC CHROMENONE INHIBITORS OF PHOSPHOINOSITIDE 3-KINASE (PI3K) FOR THE TREATMENT OF DISEASE” (PETRA PHARMA CORPORATION, priority 2022, published 2024):

Experiments:
[1] = Metabolic stability and intrinsic clearance in human liver microsomes (MICS); assay type: in vitro ADME; details: human, microsomes, pH 7.4
Method in brief: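 Parent depletion by LC-MS/MS, run in duplicate, gave in vitro t1/2 from the slope of ln(% remaining) versus time, converted to CLint (μL/min/mg protein). Incubations: 1 μM compound, microsomes at 0.5 mg/mL, pH 7.4 phosphate, 37° C, ±1 mM NADPH, timepoints 0.5, 5, 15, 30, 60 min.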

[2] = molecular target: T1, PI3Kα E545K (Homo sapiens, UniProt P42336, E545K); experiment: PI3Kα E545K mutant in vitro cell based assay, MDA-MB-361 cells; set-up: MDA-MB-361 (ATCC-HTB-27) cell line (PI3Kα E545K); host or cells: MDA-MB-361; details: MDA-MB-361 cell line, 0% FBS, no insulin, 3 hours treatment
T1 sequence (P42336 whole entry E545K): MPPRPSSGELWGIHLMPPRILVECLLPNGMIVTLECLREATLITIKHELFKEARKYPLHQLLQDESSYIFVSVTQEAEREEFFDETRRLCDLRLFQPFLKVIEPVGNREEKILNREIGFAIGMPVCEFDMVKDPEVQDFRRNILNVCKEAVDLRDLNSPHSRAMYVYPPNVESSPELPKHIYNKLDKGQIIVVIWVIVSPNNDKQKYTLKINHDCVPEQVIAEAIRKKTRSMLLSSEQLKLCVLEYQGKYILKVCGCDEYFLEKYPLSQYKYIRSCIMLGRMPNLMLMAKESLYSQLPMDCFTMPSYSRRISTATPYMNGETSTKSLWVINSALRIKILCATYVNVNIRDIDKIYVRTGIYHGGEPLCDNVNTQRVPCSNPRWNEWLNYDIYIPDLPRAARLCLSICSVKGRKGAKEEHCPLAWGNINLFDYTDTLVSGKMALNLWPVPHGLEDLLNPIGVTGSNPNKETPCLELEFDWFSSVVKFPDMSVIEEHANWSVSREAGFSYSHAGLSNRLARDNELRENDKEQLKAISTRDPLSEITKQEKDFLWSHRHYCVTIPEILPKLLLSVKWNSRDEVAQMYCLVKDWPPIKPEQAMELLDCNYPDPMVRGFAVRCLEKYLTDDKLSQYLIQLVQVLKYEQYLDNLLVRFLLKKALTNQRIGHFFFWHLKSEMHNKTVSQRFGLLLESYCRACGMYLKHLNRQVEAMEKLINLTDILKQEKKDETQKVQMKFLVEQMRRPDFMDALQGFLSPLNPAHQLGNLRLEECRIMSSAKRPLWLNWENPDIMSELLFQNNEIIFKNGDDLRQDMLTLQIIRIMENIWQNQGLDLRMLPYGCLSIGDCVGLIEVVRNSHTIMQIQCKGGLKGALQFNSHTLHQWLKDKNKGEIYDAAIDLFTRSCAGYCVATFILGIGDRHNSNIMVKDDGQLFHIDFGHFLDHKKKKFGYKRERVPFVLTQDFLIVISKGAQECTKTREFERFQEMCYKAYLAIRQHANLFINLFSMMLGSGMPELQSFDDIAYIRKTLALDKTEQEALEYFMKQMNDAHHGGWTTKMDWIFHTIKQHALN
T1 sequence (P27986 whole entry partner): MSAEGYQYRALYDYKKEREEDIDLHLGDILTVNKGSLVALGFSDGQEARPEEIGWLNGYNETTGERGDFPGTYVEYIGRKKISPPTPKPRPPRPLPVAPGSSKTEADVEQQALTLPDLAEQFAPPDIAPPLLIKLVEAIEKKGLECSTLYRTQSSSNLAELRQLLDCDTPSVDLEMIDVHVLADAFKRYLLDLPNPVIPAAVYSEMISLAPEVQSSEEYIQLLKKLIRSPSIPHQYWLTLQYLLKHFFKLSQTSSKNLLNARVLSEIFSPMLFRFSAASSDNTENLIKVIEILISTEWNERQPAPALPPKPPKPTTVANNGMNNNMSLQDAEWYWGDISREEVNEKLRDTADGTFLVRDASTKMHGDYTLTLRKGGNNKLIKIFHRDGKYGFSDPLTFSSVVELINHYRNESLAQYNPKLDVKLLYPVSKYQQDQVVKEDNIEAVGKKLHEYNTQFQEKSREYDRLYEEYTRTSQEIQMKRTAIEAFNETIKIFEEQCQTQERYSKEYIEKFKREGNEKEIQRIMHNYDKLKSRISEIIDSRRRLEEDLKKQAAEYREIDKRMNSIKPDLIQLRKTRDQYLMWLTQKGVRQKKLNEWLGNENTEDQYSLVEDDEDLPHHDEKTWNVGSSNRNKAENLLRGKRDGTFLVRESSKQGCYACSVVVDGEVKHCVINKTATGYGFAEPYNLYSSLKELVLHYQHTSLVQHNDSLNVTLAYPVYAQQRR
Method in brief: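 Compound exposure lasted 3 hours, in duplicate 10-point 1:3 dilutions at 0.3% DMSO final, on overnight-attached MDA-MB-361 cells carrying PI3Kα E545K in insulin-free, 0% FBS MEM. Lysates read by SureFire AlphaLISA. Relative IC50 from 4-parameter logistic fit versus DMSO and 1 μM GDC-0032 controls.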

[3] = molecular target: T1, PI3Kα E545K; experiment: PI3Kα E545K mutant in vitro cell based assay, MCF-7 cells; details: MCF-7 cell line, 0% FBS, 3 hours treatment
Text: (§1) PI3K-Alpha Kinase (PI3Kα) Activity: Wild-Type PI3Kα, H1047R Mutant PI3Kα, and E545K Mutant PI3Kα In Vitro Cell Based Assays and Determination of IC50 Values for Inhibitors
(§2) The MDA-MB-453 (ATCC-HTB-131) cell line (PI3Kα H1047R) and MCF-7 (ATCC-HTB-22) cell line (PI3Kα E545K), MDA-MB-361 (ATCC-HTB-27) cell line (PI3Kα E545K), and SKBR3 (ATCC-HTB-30) cell line (wild type PI3Kα) were obtained from the American Type Culture Collection (Manassas, VA). MDA-MB-453 cells were maintained in Dulbecco's Modified Eagle Media (DMEM, Gibco 12430) supplemented with 10% Fetal Bovine Serum, heat inactivated (FBS HI, Gibco 10082), 1× non-essential amino acids (NEAA, Gibco 11140), 1 mM sodium pyruvate (Gibco 11360) and 1× Anti-Anti (Gibco 15240). MCF-7 cells were maintained in Minimum Essential Media (MEM) (Gibco 11095) supplemented with 10% Fetal Bovine Serum, heat inactivated (FBS HI, Gibco 10082), 1× non-essential amino acids (NEAA, Gibco 11140), 1 mM sodium pyruvate (Gibco 11360), 1× Anti-Anti (Gibco 15240) and 10 μg/mL human insulin (Sigma I 9278). MDA-MB-361 cells were maintained in Dulbecco's Modified Eagle Media (DMEM, Gibco 12430) supplemented with 20% Fetal Bovine Serum, heat inactivated (FBS HI, Gibco 10082), 1× non-essential amino acids (NEAA, Gibco 11140), 1 mM sodium pyruvate (Gibco 11360) and 1× Anti-Anti (Gibco 15240). SKBR3 cells were maintained in McCoy's 5A (Gibco 16600) supplemented with 10% Fetal Bovine Serum, heat inactivated (FBS HI, Gibco 10082), and 1× Anti-Anti (Gibco 15240). Cultures were maintained in a humidified incubator at 37° C. under 5% CO2/95% air.
(§3) For compound testing in 0% FBS, MDA-MB-453, MCF-7 and SKBR3 cells were seeded at a density of 1.5×10^4, 1.0×10^4, and 1.0×10^4 cells, respectively, per well in white 384-well plates in 20 μl of Minimum Essential Media (MEM) assay media with 1×NEAA, 1 mM sodium pyruvate, and 1 μg/mL human insulin (Sigma 19278) (Assay Medium); while MDA-MB-361 cells were seeded at a density of 1.5×10^4 per well in white 384-well plates in 20 μl Assay Medium without insulin. After plating, cells were allowed to attach overnight. Compounds dissolved in 10 mM stock solutions in DMSO were serially diluted 1:3 in DMSO to generate a 10-point dilution series and plated using an acoustic liquid handler system (Echo 550 Series Liquid Handler, Labcyte). A 5× intermediate compound dilution plate in MEM with 1×NEAA and 1 mM sodium pyruvate (150 μM starting compound concentration in 1.5% DMSO) was then prepared. Five μl of the intermediate serially diluted compounds were added to the cell plate to final concentrations ranging from […] in 0.3% DMSO. 0.3% DMSO alone was used to establish the maximum (MAX) signal and GDC-0032 at a final concentration of 1 μM was used as a reference compound for the minimum (MIN) signal. After 3 hours treatment, the medium was removed, and the cells were lysed in 10 μL of 1× SureFire Lysis buffer with shaking for 10 minutes at room temperature. The Acceptor Mix (Reaction Buffer 1+Reaction Buffer 2+Activation Buffer+SureFire Ultra Acceptor Beads) was prepared by diluting Activation buffer 25-fold in combined Reaction Buffer 1 and Reaction Buffer 2.
(§4) The Acceptor beads were diluted 50-fold in the combined Reaction Buffers. Five μL of Acceptor Mix was added to each well, the plate was sealed and covered with foil and incubated for 1 hour at room temperature. The Donor Mix (dilution buffer+SureFire Ultra Donor Beads) was prepared by diluting Donor Beads 50-fold in dilution buffer. Five μL of the Donor Mix was added to each well and the plate sealed and covered with foil and incubated for 1-2 hours at room temperature in the dark. The plates were read on a Neo2 plate reader instrument from Biotek using standard AlphaLisa settings.
(§5) Compounds were tested in duplicate and the % inhibition at each compound concentration was used to generate two dose response curves. One IC50 was generated using average % inhibition at each compound concentration. […]

[4] = molecular target: T2, PI3Kα H1047R (Homo sapiens, UniProt P42336, H1047R); experiment: PI3Kα H1047R mutant in vitro cell based assay, MDA-MB-453 cells (AlphaLisa SureFire); details: MDA-MB-453 cell line, 0% FBS, 3 hours treatment
T2 construct: The MDA-MB-453 (ATCC-HTB-131) cell line (PI3Kα H1047R); host or cells: MDA-MB-453
T2 sequence (P42336 whole entry H1047R): as the sequence (P42336 whole entry E545K) above, with K545E, H1047R counted along it
T2 sequence (P27986 whole entry partner): as the sequence (P27986 whole entry partner) above
Text: as §1, §2, §3, §4, §5

| Structure (SMILES) | microsomal CLint at 1 μM [1] | IC50 [2] | IC50 [3] | IC50 [4] |
| --- | --- | --- | --- | --- |
| CONC(=O)c1nc(Cl)ccc1O[C@H](C)c1cc(C)cc2c(=O)c(C)c(-c3ccc4nn(C)cc4c3)oc12 [Example 26A, 6-Chloro-3-[(1R)-1-[3,6-dimethyl-2-(2-methylindazol-5-yl)-4-oxo-chromen-8-yl]ethoxy]-N-methoxy-pyridine-2-carboxamide] | < 50 µL/min/mg | < 500 nM | < 500 nM |  |
| Cc1cc([C@@H](C)Oc2cccnc2S(N)(=O)=O)c2oc(-c3cnn4c3OCC4)c(C)c(=O)c2c1 [Example 95C, 3-[(1R)-1-[2-(2,3-Dihydropyrazolo[5,1-b]oxazol-7-yl)-3,6-dimethyl-4-oxo-chromen-8-yl]ethoxy]pyridine-2-sulfonamide] |  |  |  | < 100 nM |
| Cc1cc([C@@H](C)Oc2ccc(Cl)nc2S(N)(=O)=O)c2oc(-c3cnn(C)n3)c(C)c(=O)c2c1 [Example 35A, 6-Chloro-3-[(1R)-1-[3,6-dimethyl-2-(2-methyltriazol-4-yl)-4-oxo-chromen-8-yl]ethoxy]pyridine-2-sulfonamide] |  |  |  | < 100 nM |
| Cc1cc([C@@H](C)Oc2ccccc2C(N)=O)c2oc(-c3ccc4nn(C)cc4c3)c(C)c(=O)c2c1 [Example 9A, 2-[(1R)-1-[3,6-Dimethyl-2-(2-methylindazol-5-yl)-4-oxo-chromen-8-yl]ethoxy]benzamide] |  |  |  | < 100 nM |
| Cc1cc([C@@H](C)Oc2ccc(F)nc2S(N)(=O)=O)c2oc(C3CC3)c(C)c(=O)c2c1 [Example 109C, 3-[(1R)-1-(2-Cyclopropyl-3,6-dimethyl-4-oxo-chromen-8-yl)ethoxy]-6-fluoro-pyridine-2-sulfonamide] | < 50 µL/min/mg |  | < 500 nM |  |
| Cc1cc([C@@H](C)Oc2ccc(Cl)nc2S(N)(=O)=O)c2oc(-c3cn[nH]c3)c(C)c(=O)c2c1 [Example 115C, 6-Chloro-3-[(1R)-1-[3,6-dimethyl-4-oxo-2-(1H-pyrazol-4-yl)chromen-8-yl]ethoxy]pyridine-2-sulfonamide] | < 50 µL/min/mg | < 500 nM | < 500 nM |  |
| Cc1cc([C@@H](C)Oc2ccc(Cl)nc2S(N)(=O)=O)c2oc(-c3cnc4nonc4c3)c(C)c(=O)c2c1 [Example 30C, 6-Chloro-3-[(1R)-1-[3,6-dimethyl-2-([1,2,5]oxadiazolo[3,4-b]pyridin-6-yl)-4-oxo-chromen-8-yl]ethoxy]pyridine-2-sulfonamide] |  |  |  | < 100 nM |
| Cc1cc([C@@H](C)Oc2ccc(Cl)nc2C(N)=O)c2oc(-c3ccc4nn(C)cc4n3)c(C)c(=O)c2c1 [Example 141A, 6-Chloro-3-[(1R)-1-[3,6-dimethyl-2-(2-methylpyrazolo[4,3-b]pyridin-5-yl)-4-oxo-chromen-8-yl]ethoxy]pyridine-2-carboxamide] | < 50 µL/min/mg |  | < 500 nM |  |
| Cc1cc([C@@H](C)Oc2ccc(F)c(F)c2S(N)(=O)=O)c2oc(-c3cnn(C)c3)c(C)c(=O)c2c1 [Example 110C, 6-[(1R)-1-[3,6-Dimethyl-2-(1-methylpyrazol-4-yl)-4-oxo-chromen-8-yl]ethoxy]-2,3-difluoro-benzenesulfonamide] | < 50 µL/min/mg | < 500 nM | < 500 nM |  |
| Cc1cc([C@@H](C)Oc2ccc(Cl)nc2S(N)(=O)=O)c2oc(-c3cnn(CCC(F)F)c3)c(C)c(=O)c2c1 [Example 119C, 6-Chloro-3-[(1R)-1-[2-[1-(3,3-difluoropropyl)pyrazol-4-yl]-3,6-dimethyl-4-oxo-chromen-8-yl]ethoxy]pyridine-2-sulfonamide] | < 50 µL/min/mg | < 500 nM | < 500 nM |  |
| Cc1cc([C@@H](C)Oc2ccc(Cl)nc2C(N)=O)c2oc(-c3ccc4nn(C)cc4c3F)c(C)c(=O)c2c1 [Example 46C, 6-Chloro-3-[(1R)-1-[2-(4-fluoro-2-methyl-indazol-5-yl)-3,6-dimethyl-4-oxo-chromen-8-yl]ethoxy]pyridine-2-carboxamide] | < 50 µL/min/mg |  | < 500 nM |  |
| Cc1cc([C@@H](C)Oc2ccc(Cl)nc2C(N)=O)c2oc(-c3cnn4c3OCCC4)c(C)c(=O)c2c1 [Example 108A, 6-Chloro-3-[(1R)-1-[2-(6,7-dihydro-5H-pyrazolo[5,1-b][1,3]oxazin-3-yl)-3,6-dimethyl-4-oxo-chromen-8-yl]ethoxy]pyridine-2-carboxamide] |  |  |  | < 100 nM |
| CONC(=O)c1ncccc1O[C@H](C)c1cc(C)cc2c(=O)c(C)c(-c3ccc4nn(C)cc4c3)oc12 [Example 23A, 3-[(1R)-1-[3,6-Dimethyl-2-(2-methylindazol-5-yl)-4-oxo-chromen-8-yl]ethoxy]-N-methoxy-pyridine-2-carboxamide] | < 50 µL/min/mg |  | < 500 nM |  |
| CONS(=O)(=O)c1nc(Cl)ccc1O[C@H](C)c1cc(C)cc2c(=O)c(C)c(-c3ccccc3)oc12 [Example 32A, 6-Chloro-3-[(1R)-1-(3,6-dimethyl-4-oxo-2-phenyl-chromen-8-yl)ethoxy]-N-methoxy-pyridine-2-sulfonamide] |  |  |  | < 100 nM |
| Cc1cc([C@@H](C)Oc2ccc(Cl)nc2S(N)(=O)=O)c2oc(-c3ccc4nn(CCO)cc4c3)c(C)c(=O)c2c1 [Example 88C, 6-Chloro-3-[(1R)-1-[2-[2-(2-hydroxyethyl)indazol-5-yl]-3,6-dimethyl-4-oxo-chromen-8-yl]ethoxy]pyridine-2-sulfonamide] |  |  |  | < 100 nM |
| Cc1cc([C@@H](C)Oc2ccc(Cl)nc2-c2noc(=O)[nH]2)c2oc(-c3cnc4ccoc4c3)c(C)c(=O)c2c1 [Example 6C, 3-[6-Chloro-3-[(1R)-1-(2-furo[3,2-b]pyridin-6-yl-3,6-yl)ethoxy]-2-pyridyl]-4H-dimethyl-4-oxo-chromen-8-1,2,4-oxadiazol-5-one] |  |  |  | < 100 nM |
| Cc1cc([C@@H](C)Oc2ccc(Cl)nc2C(N)=O)c2oc(-c3ccc4nn(C(F)F)cc4c3)c(C)c(=O)c2c1 [Example 66A, 6-Chloro-3-[(1R)-1-[2-[2-(difluoromethyl)indazol-5-yl]-3,6-dimethyl-4-oxo-chromen-8-yl]ethoxy]pyridine-2-carboxamide] | < 50 µL/min/mg | < 500 nM | < 500 nM |  |
